Laboratory results published in patent US5652363A, “Pyrido-1,4-oxazinylalkyl-benzamide derivatives” (C.D. Searle & Co., priority 1996, dated 1997).

These molecules were tested against T1, PAF receptor (Homo sapiens, UniProt P25105) (assay: Human Platelet Receptor Binding Assay ([3H]PAF binding to human platelet membrane preparation)). Conditions: inhibition of specific binding of 0.75 nM [3H]PAF to human platelet membranes, 30 minutes at 24° C.; read-out: PAF Inhibitor Activity Human Platelet Receptor Assay.
T1 construct: tissue Lifesource, Inc. (Glenview, Ill.); host or cells: human platelets (membrane preparation)
Method: Human Platelet Receptor Binding Assay
Compounds of the invention were evaluated for their ability to inhibit specific binding of [^3 H]PAF to human platelet membrane preparation. Human packed platelets were obtained from Lifesource, Inc. (Glenview, Ill.) and washed 3 times with 10 mM Trizma pH 7.0, 2 mM EDTA (dipotassium salt), 150 mM KCl and then once with 10 mM Trizma 7.4, 20 mM CaCl2. The platelets were broken by freezing in a dry ice-ethanol bath, followed by thawing in 24° C. water baths. The preparation was centrifuged (40,000×g, 20 minutes, 4° C.) and the pellet suspended in 10 mM Trizma 7.4, 20 mM CaCl2, 5 mg/ml human albumin. Protein concentration in the platelet membrane preparation was determined by the Lowry method [O. H. Lowry et al., J. Biol. Chem., 193, 265-275 (1951)]. Aliquots of the membrane preparation were stored at -70° C. Each preparation was characterized for PAF receptor number and dissociation constant (Kd). In binding assays 5 μl of test compound, solubilized in DMSO, was added to polypropylene tubes along with 0.75 nM [^3 H]PAF and 200 mcl [0.075 nM] of membranes and 95 μl 10 mM Trizma 7.4, 20 mM CaCl2, 5 mg/ml human albumin-Tubes were incubated for 30 minutes at 24° C. The incubation was terminated by adding 4 ml of ice-cold 10 mM Trizma pH 7.4, 20 mM CaCl2 and 20 mg/ml BSA prior to vacuum filtration using Whatman GF/C filters. Filters were prepared and counted in a scintillation counter. All DPM values (disintergrations per minute) were corrected for background and isotope decay. Triplicate determinations for single doses were averaged. The amount of non-specific binding was subtracted from all dose averages, giving an amount of specific binding in all cases. The IC50 values for the compounds of the invention were determined by the Allfit program using percent displacement data. (Allfit is a `basic` computer program for simultaneous curve fitting of a family of signoidal dose-response curves using the four parameter logistic equation.) Results are shown in Table I. In Table 1 "c-pent" means cyclopentyl; "c-hex" means cyclohexyl; "i-Pr" means isopropyl; "Me" means methyl; and "OMe" means methoxy.

T1 sequence (P25105 whole entry): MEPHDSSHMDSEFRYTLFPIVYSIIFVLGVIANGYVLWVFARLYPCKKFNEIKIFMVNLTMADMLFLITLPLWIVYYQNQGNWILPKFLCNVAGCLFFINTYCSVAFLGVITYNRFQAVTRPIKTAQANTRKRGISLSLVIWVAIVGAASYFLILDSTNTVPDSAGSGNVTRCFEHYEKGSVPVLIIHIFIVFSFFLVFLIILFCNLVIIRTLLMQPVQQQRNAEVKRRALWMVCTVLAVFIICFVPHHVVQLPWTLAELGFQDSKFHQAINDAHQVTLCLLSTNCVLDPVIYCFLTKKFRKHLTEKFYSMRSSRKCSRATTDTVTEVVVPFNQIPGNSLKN

| SMILES | IC50 |
| --- | --- |
| COc1cc(CN2CCOc3cnccc32)ccc1C(=O)N(C1CCCC1)[C@@H]1C[C@H](C)C[C@H](C)C1 [Example 9] | 163 nM |
| Cc1cc(C(=O)N(C2CCCCC2)C2CCCC2)ccc1CN1CCOc2cnccc21 [Example 10, N-cyclohexyl-N-cyclopentyl-4-[(2,3-dihydro-1H-pyrido[3,4-b][1,4]oxazin-1-yl)methyl]-3-methyl-benzamide] | 219 nM |
| CC(C)N(C(=O)c1ccc(CN2CCOc3cnccc32)c(Br)c1)C1CCCCC1 [Example 11, 3-bromo-N-cyclohexyl-4-[(2,3-dihydro-1H-pyrido[3,4-b]-[1,4]oxazin-1-yl)methyl]-N-(1-methylethyl)benzamide] | 2 nM |
| COc1cc(C(=O)N(C(C)C)C2CCCCC2)ccc1CN1C(=O)COc2ncccc21 [Example 17, N-cyclohexyl-4-[{2,3-dihydro-2-oxo-1H-pyrido(2,3-b)(1,4)oxazin-1-yl}methyl]-3-methoxy-N-(1-methylethyl)benzamide] | 505 nM |
